Data published in ChEMBL document CHEMBL4507319 (2021).

How the values were obtained:
[1] = target: T1, NUAK family SNF1-like kinase 1 (Homo sapiens) (UniProt O60285); test: ARK5(h) Eurofins kinase panel; conditions: Compound concentration 1.0 uM
T1 sequence (whole entry): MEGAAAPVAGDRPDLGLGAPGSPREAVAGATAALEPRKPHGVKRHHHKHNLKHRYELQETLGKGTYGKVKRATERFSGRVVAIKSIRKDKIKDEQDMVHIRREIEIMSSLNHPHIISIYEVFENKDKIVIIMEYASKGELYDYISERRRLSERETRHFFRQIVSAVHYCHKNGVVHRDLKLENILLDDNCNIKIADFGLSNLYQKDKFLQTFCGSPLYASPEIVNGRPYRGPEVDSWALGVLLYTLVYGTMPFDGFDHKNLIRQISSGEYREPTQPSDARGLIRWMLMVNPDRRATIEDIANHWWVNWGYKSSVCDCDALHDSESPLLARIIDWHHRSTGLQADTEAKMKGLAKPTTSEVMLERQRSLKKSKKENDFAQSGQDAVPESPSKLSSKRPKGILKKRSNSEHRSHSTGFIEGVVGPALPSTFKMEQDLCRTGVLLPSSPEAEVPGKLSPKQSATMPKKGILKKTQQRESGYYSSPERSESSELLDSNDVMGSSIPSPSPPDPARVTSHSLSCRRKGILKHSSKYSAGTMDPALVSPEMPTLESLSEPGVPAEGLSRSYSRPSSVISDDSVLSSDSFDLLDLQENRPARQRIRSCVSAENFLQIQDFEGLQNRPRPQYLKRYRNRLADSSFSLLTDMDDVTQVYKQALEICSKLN

[2] = target: Calcium/calmodulin-dependent protein kinase type 1B (Homo sapiens) (UniProt Q6P2M8); test: CaMKIbeta(h) Eurofins kinase panel; conditions: Compound concentration 1.0 uM
[3] = target: eIF-2-alpha kinase GCN2 (Homo sapiens) (UniProt Q9P2K8); test: GCN2(h) Eurofins kinase panel; conditions: Compound concentration 1.0 uM
[4] = target: Dual specificity protein kinase CLK3 (Homo sapiens) (UniProt P49761); test: CLK3(h) Eurofins kinase panel; conditions: Compound concentration 1.0 uM
[5] = target: Dual specificity tyrosine-phosphorylation-regulated kinase 1B (Homo sapiens) (UniProt Q9Y463); test: DYRK1B(h) Eurofins kinase panel; conditions: Compound concentration 1.0 uM
[6] = target: T2, TGF-beta receptor type-1 (Homo sapiens) (UniProt P36897); test: TGFBR1(h) Eurofins kinase panel; conditions: Compound concentration 1.0 uM
T2 sequence (whole entry): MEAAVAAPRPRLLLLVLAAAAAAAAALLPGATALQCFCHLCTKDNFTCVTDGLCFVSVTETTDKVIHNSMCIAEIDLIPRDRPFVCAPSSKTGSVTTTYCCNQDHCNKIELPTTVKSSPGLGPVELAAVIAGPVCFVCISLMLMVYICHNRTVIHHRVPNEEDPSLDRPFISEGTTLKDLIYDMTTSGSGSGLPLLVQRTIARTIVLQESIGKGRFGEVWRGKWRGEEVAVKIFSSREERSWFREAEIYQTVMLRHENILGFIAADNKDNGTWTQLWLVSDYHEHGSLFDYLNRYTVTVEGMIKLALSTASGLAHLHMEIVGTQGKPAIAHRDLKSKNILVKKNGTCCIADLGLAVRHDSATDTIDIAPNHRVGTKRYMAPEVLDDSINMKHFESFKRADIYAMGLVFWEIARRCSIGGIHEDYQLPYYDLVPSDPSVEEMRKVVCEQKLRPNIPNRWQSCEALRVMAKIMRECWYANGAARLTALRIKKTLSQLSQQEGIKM

[7] = target: Serine/threonine-protein kinase NIM1 (Homo sapiens) (UniProt Q8IY84); test: NIM1(h) Eurofins kinase panel; conditions: Compound concentration 1.0 uM
[8] = target: Serine/threonine-protein kinase N1 (Homo sapiens) (UniProt Q16512); test: PRK1(h) Eurofins kinase panel; conditions: Compound concentration 1.0 uM
[9] = target: Tyrosine-protein kinase JAK1 (Homo sapiens) (UniProt P23458); test: JAK1(h) Eurofins kinase panel; conditions: Compound concentration 1.0 uM
[10] = target: CDK6/cyclin D3 (Homo sapiens) (UniProt P30281+Q00534); test: CDK6/cyclinD3(h) Eurofins kinase panel; type: protein-complex assay; conditions: Compound concentration 1.0 uM
A2780 = test: A2780 cell line Proliferation assay; type: functional, Homo sapiens; conditions: time 3 day
[11] = target: Casein kinase II subunit alpha' (Homo sapiens) (UniProt P19784); test: CK2alpha2(h) Eurofins kinase panel; conditions: Compound concentration 1.0 uM
[12] = target: Eukaryotic translation initiation factor 2-alpha kinase 1 (Homo sapiens) (UniProt Q9BQI3); test: HRI(h) Eurofins kinase panel; conditions: Compound concentration 1.0 uM
[13] = target: Serine/threonine-protein kinase PRP4 homolog (Homo sapiens) (UniProt Q13523); test: PRP4(h) Eurofins kinase panel; conditions: Compound concentration 1.0 uM
[14] = target: Misshapen-like kinase 1 (Homo sapiens) (UniProt Q8N4C8); test: MINK(h) Eurofins kinase panel; conditions: Compound concentration 1.0 uM
[15] = target: Tyrosine-protein kinase Fgr (Homo sapiens) (UniProt P09769); test: Fgr(h) Eurofins kinase panel; conditions: Compound concentration 1.0 uM
[16] = target: Serine/threonine-protein kinase/endoribonuclease IRE1 (Homo sapiens) (UniProt O75460); test: IRE1(h) Eurofins kinase panel; conditions: Compound concentration 1.0 uM
PANC-1 = test: PANC-1 cell line Proliferation assay; type: functional, Homo sapiens; conditions: time 3 day
[17] = target: Tau-tubulin kinase 2 (Homo sapiens) (UniProt Q6IQ55); test: TTBK2(h) Eurofins kinase panel; conditions: Compound concentration 1.0 uM
[18] = target: Serine/threonine-protein kinase PAK 4 (Homo sapiens) (UniProt O96013); test: PAK4(h) Eurofins kinase panel; conditions: Compound concentration 1.0 uM
[19] = target: Protein kinase C theta type (Homo sapiens) (UniProt Q04759); test: PKCtheta (h) Eurofins kinase panel; conditions: Compound concentration 1.0 uM
[20] = target: Wee1-like protein kinase (Homo sapiens) (UniProt P30291); test: Wee1(h) Eurofins kinase panel; conditions: Compound concentration 1.0 uM
MDA-MB-453 = test: MDA-MB- 453 cell line Proliferation assay; type: functional, Homo sapiens; conditions: time 3 day
[21] = target: Transient receptor potential cation channel subfamily M member 7 (Homo sapiens) (UniProt Q96QT4); test: ChaK1(h) Eurofins kinase panel; conditions: Compound concentration 1.0 uM
[22] = target: T3, Rhodopsin kinase GRK1 (Homo sapiens) (UniProt Q15835); test: GRK1(h) Eurofins kinase panel; conditions: Compound concentration 1.0 uM
T3 sequence (whole entry): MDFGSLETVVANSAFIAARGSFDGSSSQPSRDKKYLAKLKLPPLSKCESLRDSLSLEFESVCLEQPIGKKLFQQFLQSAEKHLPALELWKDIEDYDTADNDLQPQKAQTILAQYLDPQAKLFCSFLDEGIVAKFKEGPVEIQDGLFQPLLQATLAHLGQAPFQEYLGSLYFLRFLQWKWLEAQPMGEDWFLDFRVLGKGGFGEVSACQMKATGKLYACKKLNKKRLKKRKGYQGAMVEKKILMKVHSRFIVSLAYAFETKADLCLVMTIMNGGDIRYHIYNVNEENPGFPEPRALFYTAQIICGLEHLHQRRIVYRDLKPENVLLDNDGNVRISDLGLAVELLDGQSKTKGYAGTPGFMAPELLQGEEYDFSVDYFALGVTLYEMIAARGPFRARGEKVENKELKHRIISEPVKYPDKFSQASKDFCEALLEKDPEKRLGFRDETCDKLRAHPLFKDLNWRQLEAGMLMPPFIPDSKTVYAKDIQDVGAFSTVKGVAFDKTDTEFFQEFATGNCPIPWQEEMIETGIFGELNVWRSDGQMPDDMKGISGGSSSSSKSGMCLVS

[23] = target: Calcium/calmodulin-dependent protein kinase type 1D (Homo sapiens) (UniProt Q8IU85); test: CaMKIdelta(h) Eurofins kinase panel; conditions: Compound concentration 1.0 uM

Serine/threonine-protein kinase/endoribonuclease IRE1 (Homo sapiens), sequence (O75460 19-977 limits assumed): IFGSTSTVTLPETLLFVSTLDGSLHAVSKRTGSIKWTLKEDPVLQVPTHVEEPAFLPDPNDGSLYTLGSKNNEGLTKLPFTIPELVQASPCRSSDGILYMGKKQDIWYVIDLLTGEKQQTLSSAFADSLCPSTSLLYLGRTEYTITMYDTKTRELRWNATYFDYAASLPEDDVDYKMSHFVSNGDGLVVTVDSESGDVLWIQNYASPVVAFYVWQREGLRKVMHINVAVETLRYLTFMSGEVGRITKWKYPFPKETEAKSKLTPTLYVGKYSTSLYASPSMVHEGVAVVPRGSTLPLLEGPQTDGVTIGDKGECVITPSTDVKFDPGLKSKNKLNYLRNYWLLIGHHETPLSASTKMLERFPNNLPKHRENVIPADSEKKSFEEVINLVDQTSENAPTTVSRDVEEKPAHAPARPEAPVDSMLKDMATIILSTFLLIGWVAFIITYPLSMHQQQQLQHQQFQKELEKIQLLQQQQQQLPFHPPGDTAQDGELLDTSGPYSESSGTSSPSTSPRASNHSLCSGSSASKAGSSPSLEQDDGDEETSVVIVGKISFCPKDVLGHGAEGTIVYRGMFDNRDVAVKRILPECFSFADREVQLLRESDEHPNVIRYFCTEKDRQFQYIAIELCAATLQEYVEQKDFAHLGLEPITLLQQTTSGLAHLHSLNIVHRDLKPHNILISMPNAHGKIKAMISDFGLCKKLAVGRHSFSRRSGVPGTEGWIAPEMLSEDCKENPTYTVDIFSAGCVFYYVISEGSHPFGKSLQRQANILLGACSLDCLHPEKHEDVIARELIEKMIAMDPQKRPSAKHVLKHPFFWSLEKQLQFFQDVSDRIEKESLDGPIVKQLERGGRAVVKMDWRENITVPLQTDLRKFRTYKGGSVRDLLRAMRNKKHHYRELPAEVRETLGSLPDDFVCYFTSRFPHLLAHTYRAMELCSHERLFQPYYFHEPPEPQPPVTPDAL
Wee1-like protein kinase (Homo sapiens), sequence (P30291 whole entry, looked up): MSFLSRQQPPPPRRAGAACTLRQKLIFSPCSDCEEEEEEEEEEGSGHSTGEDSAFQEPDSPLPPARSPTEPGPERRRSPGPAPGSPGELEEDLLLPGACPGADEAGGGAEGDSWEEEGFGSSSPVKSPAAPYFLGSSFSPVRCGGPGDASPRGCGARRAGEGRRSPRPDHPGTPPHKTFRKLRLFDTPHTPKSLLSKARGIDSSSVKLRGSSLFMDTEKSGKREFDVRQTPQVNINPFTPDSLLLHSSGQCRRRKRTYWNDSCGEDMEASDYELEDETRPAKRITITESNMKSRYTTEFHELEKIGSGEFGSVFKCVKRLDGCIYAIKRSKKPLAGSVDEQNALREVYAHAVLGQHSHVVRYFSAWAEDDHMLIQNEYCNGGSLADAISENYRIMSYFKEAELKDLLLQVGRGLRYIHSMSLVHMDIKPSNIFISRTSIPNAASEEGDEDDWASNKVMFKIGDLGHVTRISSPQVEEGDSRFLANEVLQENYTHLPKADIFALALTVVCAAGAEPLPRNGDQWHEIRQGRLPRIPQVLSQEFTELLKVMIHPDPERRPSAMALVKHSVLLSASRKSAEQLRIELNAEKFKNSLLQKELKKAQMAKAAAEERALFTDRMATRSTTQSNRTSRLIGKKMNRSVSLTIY
Serine/threonine-protein kinase PAK 4 (Homo sapiens), sequence (O96013 whole entry, looked up): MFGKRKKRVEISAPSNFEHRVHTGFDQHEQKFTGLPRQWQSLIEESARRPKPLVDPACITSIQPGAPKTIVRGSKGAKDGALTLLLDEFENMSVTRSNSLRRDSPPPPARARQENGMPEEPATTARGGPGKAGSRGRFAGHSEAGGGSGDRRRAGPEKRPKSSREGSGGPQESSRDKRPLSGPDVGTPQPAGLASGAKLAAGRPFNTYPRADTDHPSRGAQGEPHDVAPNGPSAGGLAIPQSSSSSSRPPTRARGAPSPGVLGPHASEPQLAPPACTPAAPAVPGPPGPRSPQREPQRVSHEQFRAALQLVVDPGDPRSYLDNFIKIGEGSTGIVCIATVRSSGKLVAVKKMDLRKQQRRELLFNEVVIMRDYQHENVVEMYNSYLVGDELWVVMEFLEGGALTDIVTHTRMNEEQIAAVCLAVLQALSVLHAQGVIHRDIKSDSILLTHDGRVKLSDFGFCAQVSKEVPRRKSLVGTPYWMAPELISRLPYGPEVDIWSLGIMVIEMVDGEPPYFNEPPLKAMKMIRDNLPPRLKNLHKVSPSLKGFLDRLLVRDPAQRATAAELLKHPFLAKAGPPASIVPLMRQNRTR
Misshapen-like kinase 1 (Homo sapiens), sequence (Q8N4C8 whole entry, looked up): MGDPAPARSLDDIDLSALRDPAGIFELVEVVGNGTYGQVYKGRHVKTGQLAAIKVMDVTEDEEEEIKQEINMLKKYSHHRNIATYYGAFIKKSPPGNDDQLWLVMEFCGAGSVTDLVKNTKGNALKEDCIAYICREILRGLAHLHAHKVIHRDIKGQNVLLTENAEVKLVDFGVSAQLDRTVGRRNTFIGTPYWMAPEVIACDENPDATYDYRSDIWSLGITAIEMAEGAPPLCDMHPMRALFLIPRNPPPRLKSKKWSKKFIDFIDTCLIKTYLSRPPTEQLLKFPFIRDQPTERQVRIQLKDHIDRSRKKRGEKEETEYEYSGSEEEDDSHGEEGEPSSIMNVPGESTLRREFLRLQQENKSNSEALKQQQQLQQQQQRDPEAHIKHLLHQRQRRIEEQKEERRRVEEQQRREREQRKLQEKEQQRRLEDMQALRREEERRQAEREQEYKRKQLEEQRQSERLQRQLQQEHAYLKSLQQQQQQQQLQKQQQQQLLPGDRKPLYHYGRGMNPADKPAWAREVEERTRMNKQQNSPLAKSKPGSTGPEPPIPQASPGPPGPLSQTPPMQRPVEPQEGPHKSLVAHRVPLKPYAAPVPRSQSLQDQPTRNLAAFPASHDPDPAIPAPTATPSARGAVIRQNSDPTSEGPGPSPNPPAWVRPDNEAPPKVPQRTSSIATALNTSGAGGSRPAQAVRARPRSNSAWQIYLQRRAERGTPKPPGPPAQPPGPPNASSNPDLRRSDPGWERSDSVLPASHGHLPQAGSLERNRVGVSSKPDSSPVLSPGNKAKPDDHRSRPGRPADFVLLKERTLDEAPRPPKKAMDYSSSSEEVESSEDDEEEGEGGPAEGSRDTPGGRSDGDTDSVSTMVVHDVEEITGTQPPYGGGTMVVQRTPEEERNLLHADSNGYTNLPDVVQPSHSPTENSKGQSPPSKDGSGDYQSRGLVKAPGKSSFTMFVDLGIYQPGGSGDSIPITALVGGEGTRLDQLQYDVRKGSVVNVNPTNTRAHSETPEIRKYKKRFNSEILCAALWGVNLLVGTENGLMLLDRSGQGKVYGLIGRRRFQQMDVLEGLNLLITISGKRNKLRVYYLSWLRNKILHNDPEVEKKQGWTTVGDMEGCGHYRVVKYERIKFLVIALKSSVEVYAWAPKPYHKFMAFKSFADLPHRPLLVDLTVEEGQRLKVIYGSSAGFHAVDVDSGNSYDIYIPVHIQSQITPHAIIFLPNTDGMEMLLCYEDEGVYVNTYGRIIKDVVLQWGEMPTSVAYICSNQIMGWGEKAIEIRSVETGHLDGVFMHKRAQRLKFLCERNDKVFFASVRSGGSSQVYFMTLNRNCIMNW
Serine/threonine-protein kinase PRP4 homolog (Homo sapiens), sequence (Q13523 whole entry): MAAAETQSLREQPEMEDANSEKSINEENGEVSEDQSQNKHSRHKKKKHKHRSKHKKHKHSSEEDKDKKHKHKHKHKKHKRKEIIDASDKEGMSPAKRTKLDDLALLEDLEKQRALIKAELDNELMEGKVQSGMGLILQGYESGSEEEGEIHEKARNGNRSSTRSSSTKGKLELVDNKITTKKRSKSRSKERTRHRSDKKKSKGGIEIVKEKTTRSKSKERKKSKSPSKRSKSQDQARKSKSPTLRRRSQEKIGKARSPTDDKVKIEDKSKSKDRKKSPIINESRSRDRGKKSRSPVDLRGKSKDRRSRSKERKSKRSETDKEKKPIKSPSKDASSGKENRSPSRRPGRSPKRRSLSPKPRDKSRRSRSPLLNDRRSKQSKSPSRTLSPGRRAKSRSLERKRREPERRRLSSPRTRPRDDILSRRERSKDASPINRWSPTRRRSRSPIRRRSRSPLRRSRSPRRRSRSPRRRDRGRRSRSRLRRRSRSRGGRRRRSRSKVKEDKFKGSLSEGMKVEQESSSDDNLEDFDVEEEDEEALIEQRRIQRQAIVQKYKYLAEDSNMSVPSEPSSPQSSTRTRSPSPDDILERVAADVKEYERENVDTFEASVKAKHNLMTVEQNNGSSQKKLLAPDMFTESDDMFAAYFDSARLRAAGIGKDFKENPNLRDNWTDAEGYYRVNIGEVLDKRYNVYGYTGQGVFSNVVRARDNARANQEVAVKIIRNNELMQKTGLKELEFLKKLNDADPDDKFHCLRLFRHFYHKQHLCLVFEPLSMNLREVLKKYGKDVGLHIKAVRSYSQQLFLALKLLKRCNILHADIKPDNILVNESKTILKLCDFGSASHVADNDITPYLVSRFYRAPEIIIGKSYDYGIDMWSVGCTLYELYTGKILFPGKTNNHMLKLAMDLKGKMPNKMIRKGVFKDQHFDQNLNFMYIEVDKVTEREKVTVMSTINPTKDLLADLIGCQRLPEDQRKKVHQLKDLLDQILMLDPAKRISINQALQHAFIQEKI
Serine/threonine-protein kinase NIM1 (Homo sapiens), sequence (Q8IY84 whole entry): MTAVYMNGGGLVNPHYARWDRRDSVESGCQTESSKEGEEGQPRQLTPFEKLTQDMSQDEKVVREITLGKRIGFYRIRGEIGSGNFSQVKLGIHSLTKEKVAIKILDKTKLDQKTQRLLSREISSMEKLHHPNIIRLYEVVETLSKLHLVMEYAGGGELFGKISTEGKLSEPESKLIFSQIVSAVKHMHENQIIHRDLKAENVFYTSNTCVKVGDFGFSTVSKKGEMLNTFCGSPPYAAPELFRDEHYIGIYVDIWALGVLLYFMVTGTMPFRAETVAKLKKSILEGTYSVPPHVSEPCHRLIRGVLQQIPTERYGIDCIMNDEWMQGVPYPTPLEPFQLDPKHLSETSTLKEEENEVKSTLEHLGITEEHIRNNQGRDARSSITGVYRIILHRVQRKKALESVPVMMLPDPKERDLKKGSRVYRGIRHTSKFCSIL

`CCc1ccccc1C(=O)Nc1n[nH]c2c(C)c(F)c(C3C(C#N)=C(C)N(C)C(C)=C3C#N)cc12` [BAY-3827] showed a % residual kinase activity [1] of 21%, a % residual kinase activity [2] of 91% and a % residual kinase activity [3] of 100%. The % residual kinase activity [4] was 109%, the % residual kinase activity [5] was 99% and the % residual kinase activity [6] was 99%. For the same compound, the % residual kinase activity [7] was 93%, the % residual kinase activity [8] was 74% and the % residual kinase activity [9] was 98%. For the same compound, the % residual kinase activity [10] was 110%, the “Cell Proliferation IC50” value (A2780) was greater than 33 µM and the % residual kinase activity [11] was 109%. The % residual kinase activity [12] was 100%, the % residual kinase activity [13] was 96% and the % residual kinase activity [14] was 99%. The % residual kinase activity [15] was 93%, the % residual kinase activity [16] was 104% and the “Cell Proliferation IC50” value (PANC-1) was 17.1 µM. The % residual kinase activity [17] was 108%, the % residual kinase activity [18] was 91% and the % residual kinase activity [19] was 33%. The % residual kinase activity [20] was 96%, the “Cell Proliferation IC50” value (MDA-MB-453) was 14.6 µM and the % residual kinase activity [21] was 100%. It also gave a % residual kinase activity [22] of 72% and a % residual kinase activity [23] of 104%.
